These results are taken from ChEMBL document CHEMBL1201862, “PubChem BioAssay data set” (2004).

Among the test systems are SR; TK-10; SF-268; HCT-15; OVCAR-8; UACC-257; RXF 393; K562; SNB-19; SK-MEL-2; OVCAR-5; CAKI-1; HCC 2998; UACC-62; NCI-H460; A498; HOP-92.
Test in all cases: growth of human tumour cells (NCI), 48 h

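The compound was tested at five concentrations on cells cultured in 96-well plates, with a 48-hour exposure period. GI50 marks 50% less growth.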 Activity calls are given as the source filed them. Rule as the data show it: active = GI50 up to about 1.1 µM and inactive = higher. Bounds are passed on as bounds.

In the case of `CCOC(=O)c1ccc(N2C(=O)/C(=C\OC)c3ccccc3C2=O)cc1`, the GI50 was 30.3 µM (inactive) in the assay on SR; 15.1 µM (inactive) with TK-10; 27.7 µM (inactive) with SF-268; 36 µM in the assay on HCT-15; 20 µM (inactive) in the assay on OVCAR-8; 38.5 µM (inactive) with UACC-257. Besides, the GI50 is 11.2 µM (inactive) in the assay with RXF 393; 34.2 µM (inactive) in the assay on K562; 34 µM (inactive) with SNB-19; 23 µM (inactive) with SK-MEL-2; 43.1 µM (inactive) in the assay with OVCAR-5; 33.4 µM (inactive) with CAKI-1. Moreover, the GI50 in the assay on HCC 2998 was 46.2 µM (inactive); in the assay on UACC-62 it was 23.2 µM (inactive).

Take `CCOc1ccccc1NC(=O)C1=C(C)NC(C)=C(C(=O)Nc2ccccc2OCC)C1c1ccc(NC(C)=O)cc1`: the GI50 with NCI-H460 is 35.7 µM (inactive); in the assay with A498, 23.8 µM (inactive); in the assay on HOP-92, 9.62 µM (inactive); with TK-10, 47.6 µM (inactive); in the assay with SF-268, 56.6 µM (inactive); with OVCAR-8 it was 73.5 µM (inactive). The GI50 with UACC-257 was 23.6 µM (inactive); in the assay on RXF 393 it was 20.8 µM (inactive); with K562 it was 37.1 µM (inactive); with SNB-19 it was 96.2 µM (inactive); in the assay with SK-MEL-2, 17.9 µM (inactive); with OVCAR-5, 33.6 µM (inactive). Also, the GI50 with CAKI-1 was 17.2 µM (inactive); in the assay on HCC 2998, 12.3 µM (inactive).

In the case of `N#CC(NNC(=O)c1ccccc1O)c1ccccc1` (centres undefined), the GI50 in the assay with SR was 0.689 µM (active); in the assay on NCI-H460, 0.646 µM (active); in the assay on HOP-92 it was 0.695 µM (active); in the assay on TK-10, 4.3 µM (inactive); with SF-268, 0.422 µM (active); with HCT-15, 2.73 µM. The GI50 with OVCAR-8 was 2.81 µM (inactive); in the assay on UACC-257, 5.94 µM (inactive); with RXF 393, 1.03 µM (active); in the assay with K562 it was 0.404 µM (active); with SK-MEL-2, 2.55 µM (inactive); in the assay on OVCAR-5 it was 22.1 µM (inactive). Besides, the GI50 is 2.91 µM (inactive) in the assay on CAKI-1 and 0.398 µM (active) in the assay with UACC-62.

As to `O=c1cc2n(c(=O)[nH]1)C1OC(C(O)C1O)[C@@H]2CCO` (some centres undefined), the GI50 in the assay with SR, in the assay on NCI-H460, in the assay with A498, in the assay with HOP-92, in the assay with TK-10 and with SF-268 was > 100 µM (inactive) throughout. The GI50 in the assay with OVCAR-8, in the assay with UACC-257, in the assay with RXF 393, in the assay with K562, in the assay on SNB-19 and with SK-MEL-2 was > 100 µM (inactive) each time. The GI50 in the assay with OVCAR-5, in the assay with CAKI-1 and in the assay on UACC-62 was > 100 µM (inactive) throughout.

On to `COC(=O)C1CC2(CC3=C1CCCC3)OCCO2` (centres undefined), for which the GI50 was > 100 µM (inactive) with NCI-H460; > 100 µM (inactive) in the assay on A498; > 100 µM (inactive) with HOP-92; > 100 µM (inactive) in the assay on TK-10; > 100 µM (inactive) in the assay on SF-268; above 100 µM in the assay on HCT-15. Further, the GI50 with OVCAR-8, with UACC-257, with RXF 393, in the assay on K562, in the assay on SNB-19 and in the assay on SK-MEL-2 was > 100 µM (inactive) throughout. In addition, the GI50 in the assay on CAKI-1, with HCC 2998 and in the assay on UACC-62 was > 100 µM (inactive) throughout.

In the case of `COc1cc(CC(=O)O)c([N+](=O)[O-])cc1OC`, the GI50 is > 100 µM (inactive) in the assay with NCI-H460; > 100 µM (inactive) in the assay on A498; > 100 µM (inactive) in the assay with HOP-92; > 100 µM (inactive) in the assay with TK-10; > 100 µM (inactive) in the assay on SF-268; above 100 µM in the assay on HCT-15. In addition, the GI50 in the assay on OVCAR-8, in the assay on UACC-257, in the assay with RXF 393, with K562, in the assay with SNB-19 and with SK-MEL-2 was > 100 µM (inactive) throughout. The GI50 in the assay on OVCAR-5, with CAKI-1, with HCC 2998 and in the assay on UACC-62 was > 100 µM (inactive) throughout.

Turning to `CC(O)C1OC(n2ccc(=O)[nH]c2=O)CC1n1cncn1` (centres undefined), the GI50 is > 100 µM (inactive) in the assay on SR; > 100 µM (inactive) in the assay with NCI-H460; > 100 µM (inactive) in the assay on A498; > 100 µM (inactive) with TK-10; > 100 µM (inactive) with SF-268; above 100 µM in the assay on HCT-15. The GI50 in the assay on OVCAR-8, in the assay on UACC-257, in the assay on RXF 393, with K562, in the assay with SNB-19 and with SK-MEL-2 was > 100 µM (inactive) throughout. Further, the GI50 in the assay on OVCAR-5, in the assay with CAKI-1, with HCC 2998 and in the assay on UACC-62 was > 100 µM (inactive) in each case.

Take `CC1=N/C(=C\c2ccc([N+](=O)[O-])cc2)C(=O)O1`: the GI50 was > 100 µM (inactive) in the assay on NCI-H460; > 100 µM (inactive) in the assay on A498; > 100 µM (inactive) with HOP-92; > 100 µM (inactive) with TK-10; > 100 µM (inactive) in the assay with SF-268; above 100 µM in the assay on HCT-15. Further, the GI50 in the assay on OVCAR-8, in the assay with UACC-257, with RXF 393, in the assay on K562, in the assay on SNB-19 and in the assay on SK-MEL-2 was > 100 µM (inactive) throughout. Besides, the GI50 in the assay on OVCAR-5, in the assay on HCC 2998 and with UACC-62 was > 100 µM (inactive) in each case.

With `C[C@]12CC[C@H](O)CC1=CC[C@@H]1C2CC[C@]2(C)Nc3c(cnn3-c3ccccc3)CC12` (some centres undefined), the GI50 is 2.72 µM (inactive) with NCI-H460; 3.61 µM (inactive) in the assay with A498; 9.48 µM (inactive) with TK-10; 2.23 µM in the assay with HCT-15; 6.87 µM (inactive) with OVCAR-8; 3.78 µM (inactive) in the assay on UACC-257. Also, the GI50 in the assay on RXF 393 is 0.441 µM (active); in the assay on K562 it was 2.61 µM (inactive); with SK-MEL-2, 9.73 µM (inactive); with OVCAR-5 it was 3.96 µM (inactive); with CAKI-1 it was 2.96 µM (inactive); with HCC 2998, 3.56 µM (inactive). Also, the GI50 with UACC-62 is 4.14 µM (inactive).

Regarding `CN(C)CC/C(=N\Nc1ccc([N+](=O)[O-])cc1)c1ccccc1`, the GI50 with SR is 3.5 µM (inactive); in the assay on NCI-H460, 9.48 µM (inactive); in the assay on A498, 13.2 µM (inactive); in the assay with TK-10, 4.14 µM (inactive); with SF-268, 7.94 µM (inactive); with HCT-15, 13.6 µM. For the same molecule, the GI50 is 14 µM (inactive) with OVCAR-8; 16.8 µM (inactive) with UACC-257; 4.5 µM (inactive) in the assay with RXF 393; 3.48 µM (inactive) in the assay on K562; 15 µM (inactive) in the assay on SNB-19; 12.9 µM (inactive) in the assay with SK-MEL-2. In addition, the GI50 was 15 µM (inactive) with OVCAR-5 and 12.9 µM (inactive) with UACC-62.

Take `On1c(-c2ccccc2)c(-c2c(-c3ccccc3)n(O)c3ccccc23)c2ccccc21`: the GI50 with NCI-H460 is 23.4 µM (inactive); in the assay with TK-10 it was 38 µM (inactive); with SF-268, 55 µM (inactive); with HCT-15, 41 µM; in the assay with OVCAR-8, 26.1 µM (inactive); in the assay on UACC-257 it was 26.5 µM (inactive). Also, the GI50 in the assay with RXF 393 is 20.9 µM (inactive); in the assay with K562 it was 36.6 µM (inactive); in the assay on SNB-19 it was 67.5 µM (inactive); with SK-MEL-2 it was 25.8 µM (inactive); in the assay on UACC-62 it was 55.3 µM (inactive).

For `Cc1ccccc1C(CCCO)C(=O)O` (centres undefined), the GI50 in the assay with NCI-H460 is > 100 µM (inactive); with A498 it was > 100 µM (inactive); with HOP-92, > 100 µM (inactive); with TK-10 it was > 100 µM (inactive); with SF-268, > 100 µM (inactive); with HCT-15 it was above 100 µM. Further, the GI50 in the assay on OVCAR-8, in the assay on UACC-257, in the assay with RXF 393, with K562, in the assay on SNB-19 and in the assay on SK-MEL-2 was > 100 µM (inactive) throughout. Also, the GI50 with OVCAR-5 was > 100 µM (inactive); in the assay on CAKI-1, > 100 µM (inactive); in the assay with HCC 2998, > 10 µM (inactive); with UACC-62, > 100 µM (inactive).

On to `O[C@]12c3ccccc3C1CCCCC2N1CCOCC1` (some centres undefined), for which the GI50 in the assay on SR is > 100 µM (inactive); in the assay on NCI-H460, > 100 µM (inactive); with TK-10 it was > 100 µM (inactive); with SF-268, > 100 µM (inactive); in the assay on HCT-15 it was above 100 µM; with OVCAR-8, > 100 µM (inactive). Moreover, the GI50 in the assay with UACC-257, in the assay on RXF 393, in the assay with K562, in the assay with SNB-19, with SK-MEL-2 and in the assay with UACC-62 was > 100 µM (inactive) each time.

As to `Cc1c(C(=O)C/C(=N/NC(=O)c2ccccc2)C(=O)Nc2ccc(Cl)cc2)[n+]([O-])c2ccccc2[n+]1[O-]`, the GI50 in the assay with SR was 63.8 µM (inactive); in the assay on NCI-H460, 49.1 µM (inactive); with A498, > 100 µM (inactive); in the assay on TK-10 it was > 100 µM (inactive); with SF-268, > 100 µM (inactive); in the assay with HCT-15 it was 68.5 µM. The GI50 with OVCAR-8 was > 100 µM (inactive); in the assay with UACC-257, 69.8 µM (inactive); in the assay with RXF 393, 85.1 µM (inactive); with K562 it was 69 µM (inactive); with SNB-19, 88.3 µM (inactive); with SK-MEL-2 it was > 100 µM (inactive). Further, the values for the GI50 in the assay on OVCAR-5 and with CAKI-1 were 79.3 µM (inactive) and 82.4 µM (inactive), respectively.
